Test results: article PMC6164588 (International Journal of Environmental Research and Public …, 2018)
Like-named read-outs stand apart in the source and are kept apart here.

What was measured:
[1] = tested on: Salmonella typhimurium TA102 strain; assay: Ames assay (Salmonella typhimurium/reverse mutation assay), TA102 strain
From the text: (§1) TA97, TA98, TA100, and TA102 were used as standard test strains. The strains were provided by Jiangsu Provincial Center for Disease Control and Prevention and Guizhou Medical University. TA97 and TA98 strains primarily detect the genotoxic substances of frameshift mutants, while TA100 and TA102 strains detect DNA as a mutagenic substance for base pair substitution. TA102 strain has a different specificity from the other Salmonella strains routinely used in mutagenicity screening. It detects a variety of oxidative mutagens and seems to be more sensitive to some aldehydes and some DNA damaging compounds, which are negative with other Salmonella strains.
(§2) According to the standard Ames bacterial mutagenicity assay and Safety and Technical Standards for Cosmetics, the experiments were performed by the plate incorporation method with or without liver microsomal metabolic activation (S9) mixture. For the pure materials, the highest dose group was generally 5 mg/plate or 5 μL/plate. After the bacterial inhibition experiment, five dose groups (0.05, 0.5, 5, 50, 500 μg/plate) were determined for testing the chemicals. Three parallel plates were prepared for each dose. The chemicals (test chemicals or positive control drugs), the S9 system (with or without), and the S. typhimurium strains (TA97, TA98, TA100, TA102) were added to the nutrient mediums. The negative control (blank and solvent) groups and the positive control groups were also done with three parallel plates.
(§3) The chemicals and concentrations were as follows: In the absence of the S9 system: Dexon 50 μg/plate for the TA97, TA98, and TA102 strains, and NaN3 1.5 μg/plate for the TA100 strain.
(§4) Five concentrations for each chemical were tested for mutagenicity in the standard plate pre-incubation assay. The reported numbers of reverse mutation colonies per plate are mean values from triplicates obtained in one experiment. The experiment was repeated at two times.
(§5) All the plates for the experiments were incubated under the same conditions: 37 ± 0.5 °C, 48 h, dark.
(§6) The test series was set as 100%, 50%, 10%, 5%, and 0.5%. […] Then, 100 μL of the mixtures, which were at different doses, was added to each plate.
(§7) The mutagenicity ratio (MR) is calculated as MR = x/x0(1) where x is the number of reverse mutation colonies on compound-treated plates and x0 is the number of reverse mutation colonies in the negative control group.
(§8) When the mutagenicity ratio (MR) is ≥2 and the dose–response relationship and the background are normal, the mutagenesis is judged as positive.

[2] = tested on: Salmonella typhimurium TA98 strain; assay: Ames assay (Salmonella typhimurium/reverse mutation assay), TA98 strain
From the text: as §1, §2, §3, §4, §5, §6, §7, §8

[3] = tested on: Salmonella typhimurium TA97 strain; assay: Ames assay (Salmonella typhimurium/reverse mutation assay), TA97 strain
From the text: as §1, §2, §3, §4, §5, §6, §7, §8

[4] = tested on: S. typhimurium TA100 strain; assay: Bacterial inhibition experiment, TA100 strain
Description: (§9) Bacterial inhibition experiment is necessary according to the standard Ames bacterial mutagenicity assay. Safety and Technical Standards for Cosmetics require that the maximum chemical dose should be 5 mg/plate. […] The maximum concentration of both were 50 mg/mL, then diluted to 25 mg/mL, 10 mg/mL, 5 mg/mL, and 0.5 mg/mL. Plates were poured with LB medium, and 0.1 mL of the above solution and 0.1 mL of bacterial solution per dish were added.
(§10) The criteria for determining the highest dose of the test substance are its toxicity to the bacteria and its solubility. A decrease in spontaneous reversion variables, a decrease in background bacteria, or a decrease in the number of bacteria in the culture being treated are signs of toxicity.
(§11) For this, bacterial growth inhibition tests were designed and carried out.

[5] = tested on: S. typhimurium TA102 strain; assay: Bacterial inhibition experiment, TA102 strain
Description: as §9, §10, §11

TA100 strain = conditions: concentrations of 300 μg/plate and 500 μg/plate; cited from earlier work
[6] = tested on: S. typhimurium TA98 strain; assay: Bacterial inhibition experiment, TA98 strain
Description: as §9, §10, §11

[7] = tested on: Salmonella typhimurium TA100 strain; conditions: for Mutation effect, TA100 strain: absence of S9
From the text: as §1, §2, §3, §4, §5, §6, §7, §8

TA98 strain = conditions: concentrations of 300 μg/plate and 500 μg/plate; cited from earlier work
[8] = tested on: S. typhimurium TA97 strain; assay: Bacterial inhibition experiment, TA97 strain
Description: as §9, §10, §11

[9] = dose 50 μg/plate, −S9, positive control

Structure (SMILES): O=C1c2cccc(O)c2C(=O)c2c(O)cccc21 [Dantron, reference compound]
- Reverse mutation colonies TA102 +S9 ([1]; dose 50 μg/plate, +S9): 625 ± 71 colonies per plate
- Mutagenicity ratio (MR) flag TA102 +S9 ([1]; dose 50 μg/plate, +S9, positive control): * (MR ≥ 2 compared to control)

Structure (SMILES): CN(C)c1ccc(N=NS(=O)(=O)[O-])cc1.[Na+] [Dexon, reference compound]
- Reverse mutation colonies TA102 −S9 ([1]; dose 50 μg/plate, −S9): 586 ± 83 colonies per plate
- Mutagenicity ratio (MR) flag TA102 −S9 [1, 9]: * (MR ≥ 2 compared to control)
- Reverse mutation colonies TA98 −S9 ([2]; dose 50 μg/plate, −S9): 1065 ± 137 colonies per plate
- Mutagenicity ratio (MR) flag TA98 −S9 [2, 9]: * (MR ≥ 2 compared to control)
- Reverse mutation colonies TA97 −S9 ([3]; dose 50 μg/plate): 1987 ± 203 colonies per plate
- Mutagenicity ratio (MR) flag TA97 −S9 ([3]; dose 50 μg/plate, positive control): * (MR ≥ 2 compared to control)

Structure (SMILES): O=C(c1ccccc1)c1ccc(O)cc1O [BP-1, benzophenone-1]
- Bacterial inhibition t-Test Result TA100 ([4]; dose 50 μg/plate): −
- Bacterial inhibition t-Test Result TA100 ([4]; dose 1000 μg/plate): + (t-test (p < 0.05))
- Bacterial inhibition t-Test Result TA100 ([4]; dose 2500 μg/plate): ++ (t-test (p < 0.01))
- Bacterial inhibition t-Test Result TA100 ([4]; dose 5000 μg/plate): ++ (t-test (p < 0.01))
- Bacterial inhibition t-Test Result TA102 ([5]; dose 50 μg/plate): −
- Bacterial inhibition t-Test Result TA102 ([5]; dose 500 μg/plate): + (t-test (p < 0.05))
- Bacterial inhibition t-Test Result TA102 ([5]; dose 1000 μg/plate): + (t-test (p < 0.05))
- Bacterial inhibition t-Test Result TA102 ([5]; dose 2500 μg/plate): ++ (t-test (p < 0.01))
- Bacterial inhibition t-Test Result TA102 ([5]; dose 5000 μg/plate): ++ (t-test (p < 0.01))
- Mutagenicity, TA100 strain (TA100 strain): None of the compounds produced clear positive mutagenicity results
- Bacterial inhibition t-Test Result TA98 ([6]; dose 50 μg/plate): −
- Bacterial inhibition t-Test Result TA98 ([6]; dose 500 μg/plate): + (t-test (p < 0.05))
- Bacterial inhibition t-Test Result TA98 ([6]; dose 1000 μg/plate): + (t-test (p < 0.05))
- Bacterial inhibition t-Test Result TA98 ([6]; dose 2500 μg/plate): ++ (t-test (p < 0.01))
- Bacterial inhibition t-Test Result TA98 ([6]; dose 5000 μg/plate): ++ (t-test (p < 0.01))
- Mutation effect, TA100 strain ([7]; dose 0.5 μg/plate): significant mutation effect
- Mutation effect, TA100 strain ([7]; doses of 5, 50, and 500 μg/plate): no obvious mutations
- Reverse mutation colonies TA100 +S9 ([7]; dose 0.05 μg/plate): 174 ± 13 colonies per plate
- Reverse mutation colonies TA100 −S9 ([7]; dose 0.05 μg/plate, −S9): 239 ± 17 colonies per plate
- Reverse mutation colonies TA100 +S9 ([7]; dose 0.5 μg/plate): 193 ± 12 colonies per plate
- Mutagenicity ratio (MR) flag TA100 −S9 ([7]; dose 0.5 μg/plate, −S9): * (MR ≥ 2 compared to control)
- Reverse mutation colonies TA100 −S9 ([7]; dose 0.5 μg/plate, −S9): 458 ± 29 colonies per plate
- Reverse mutation colonies TA100 +S9 ([7]; dose 5 μg/plate): 191 ± 8 colonies per plate
- Reverse mutation colonies TA100 −S9 ([7]; dose 5 μg/plate, −S9): 153 ± 2 colonies per plate
- Reverse mutation colonies TA100 +S9 ([7]; dose 50 μg/plate): 196 ± 4 colonies per plate
- Reverse mutation colonies TA100 −S9 ([7]; dose 50 μg/plate, −S9): 188 ± 15 colonies per plate
- Reverse mutation colonies TA100 +S9 ([7]; dose 500 μg/plate): 122 ± 4 colonies per plate
- Reverse mutation colonies TA100 −S9 ([7]; dose 500 μg/plate, −S9): 181 ± 10 colonies per plate
- Mutagenicity, TA98 strain (TA98 strain): None of the compounds produced clear positive mutagenicity results
- Bacterial inhibition t-Test Result TA97 ([8]; dose 50 μg/plate): −
- Bacterial inhibition t-Test Result TA97 ([8]; dose 500 μg/plate): + (t-test (p < 0.05))
- Bacterial inhibition t-Test Result TA97 ([8]; dose 1000 μg/plate): + (t-test (p < 0.05))
- Bacterial inhibition t-Test Result TA97 ([8]; dose 2500 μg/plate): ++ (t-test (p < 0.01))
- Bacterial inhibition t-Test Result TA97 ([8]; dose 5000 μg/plate): ++ (t-test (p < 0.01))
- Reverse mutation colonies TA102 +S9 ([1]; dose 0.05 μg/plate, +S9): 350 ± 11 colonies per plate
- Reverse mutation colonies TA102 −S9 ([1]; dose 0.05 μg/plate, −S9): 311 ± 12 colonies per plate
- Reverse mutation colonies TA102 +S9 ([1]; dose 0.5 μg/plate, +S9): 369 ± 10 colonies per plate
- Reverse mutation colonies TA102 −S9 ([1]; dose 0.5 μg/plate, −S9): 369 ± 18 colonies per plate
- Reverse mutation colonies TA102 +S9 ([1]; dose 5 μg/plate, +S9): 443 ± 8 colonies per plate
- Reverse mutation colonies TA102 −S9 ([1]; dose 5 μg/plate, −S9): 355 ± 20 colonies per plate
- Reverse mutation colonies TA102 +S9 ([1]; dose 50 μg/plate, +S9): 429 ± 8 colonies per plate
- Reverse mutation colonies TA102 −S9 ([1]; dose 50 μg/plate, −S9): 407 ± 16 colonies per plate
- Reverse mutation colonies TA102 +S9 ([1]; dose 500 μg/plate, +S9): 390 ± 10 colonies per plate
- Reverse mutation colonies TA102 −S9 ([1]; dose 500 μg/plate, −S9): 7 ± 4 colonies per plate
- Mutagenicity, TA102 strain ([1]; presence or absence of S9): not mutagenic
- Reverse mutation colonies TA98 +S9 ([2]; dose 0.05 μg/plate): 51 ± 7 colonies per plate
- Reverse mutation colonies TA98 −S9 ([2]; dose 0.05 μg/plate, −S9): 43 ± 13 colonies per plate
- Reverse mutation colonies TA98 +S9 ([2]; dose 0.5 μg/plate): 48 ± 2 colonies per plate
- Reverse mutation colonies TA98 −S9 ([2]; dose 0.5 μg/plate, −S9): 46 ± 8 colonies per plate
- Reverse mutation colonies TA98 +S9 ([2]; dose 5 μg/plate): 52 ± 7 colonies per plate
- Reverse mutation colonies TA98 −S9 ([2]; dose 5 μg/plate, −S9): 33 ± 3 colonies per plate
- Reverse mutation colonies TA98 +S9 ([2]; dose 50 μg/plate): 36 ± 1 colonies per plate
- Reverse mutation colonies TA98 −S9 ([2]; dose 50 μg/plate, −S9): 22 ± 9 colonies per plate
- Reverse mutation colonies TA98 +S9 ([2]; dose 500 μg/plate): 23 ± 2 colonies per plate
- Reverse mutation colonies TA98 −S9 ([2]; dose 500 μg/plate, −S9): 0 ± 1 colonies per plate
- Mutagenicity result, TA98 strain ([2]; systems both with and without S9): not mutagenic
- Mutagenic activities, TA97 strain ([3]; +S9 system, doses from 0.05 μg/plate to 500 μg/plate): no mutagenic activities were detected
- Mutagenicity, TA97 strain ([3]; absence of S9, doses of 0.05 and 0.5 μg/plate): significant mutagenicity
- Reverse mutation colonies TA97 +S9 ([3]; dose 0.05 μg/plate): 151 ± 8 colonies per plate
- Mutagenicity ratio (MR) flag TA97 −S9 ([3]; dose 0.05 μg/plate): * (MR ≥ 2 compared to control)
- Reverse mutation colonies TA97 −S9 ([3]; dose 0.05 μg/plate): 925 ± 13 colonies per plate
- Reverse mutation colonies TA97 +S9 ([3]; dose 0.5 μg/plate): 143 ± 10 colonies per plate
- Mutagenicity ratio (MR) flag TA97 −S9 ([3]; dose 0.5 μg/plate): * (MR ≥ 2 compared to control)
- Reverse mutation colonies TA97 −S9 ([3]; dose 0.5 μg/plate): 697 ± 56 colonies per plate
- Reverse mutation colonies TA97 +S9 ([3]; dose 5 μg/plate): 146 ± 10 colonies per plate
- Reverse mutation colonies TA97 −S9 ([3]; dose 5 μg/plate): 185 ± 10 colonies per plate
- Reverse mutation colonies TA97 +S9 ([3]; dose 50 μg/plate): 149 ± 11 colonies per plate
- Reverse mutation colonies TA97 −S9 ([3]; dose 50 μg/plate): 83 ± 6 colonies per plate
- Reverse mutation colonies TA97 +S9 ([3]; dose 500 μg/plate): 88 ± 20 colonies per plate
- Reverse mutation colonies TA97 −S9 ([3]; dose 500 μg/plate): 6 ± 1 colonies per plate
